Measurements from patent US20200039918A1, “METHOD FOR PREPARING SINGLE CRYSTAL OF ANHYDROUS HALOGENATED CHOLINE OR DERIVATIVE THEREOF” (HEBEI UNIVERSITY OF SCIENCE AND TECHNOLOGY, priority 2017, published 2020).

How the values were obtained:
[1] = water absorption and agglomeration after being placed in the air for 24 hours; format: physicochemical
[2] = TG
Experimental: The crystal structure and thermal stability of anhydrous choline chloride single crystal product obtained in Experiment example 1 were analyzed, respectively.

SMILES	agglomeration [1]	water absorption amount [1] [wt %]	initial temperature of thermal cracking ([2]; FIG. 5) [°C]	temperature at which the weight loss rate reaches the maximum ([2]; FIG. 5) [°C]	thermal stability (comparison in words) ([2]; versus commercial product)	temperature at which weight loss began ([2]; weight loss ascribed to evaporation of water) [°C]
C[N+](C)(C)CCO.[Cl-] [choline chloride]	not agglomerated	2.58	350	370	better than that of commercial choline chloride	330
C[N+](C)(C)CCO.[I-] [anhydrous choline iodide single crystal, choline iodide]	not agglomerated	2.30				
CCC(=O)OCC[N+](C)(C)C.[Br-] [propionylcholine bromide]	not agglomerated	0.77				
CCC(=O)OCC[N+](C)(C)C.[Cl-] [propionylcholine chloride]	not agglomerated	1.06				
CC(=O)OCC[N+](C)(C)C.[Cl-] [acetylcholine chloride]	not agglomerated	1.58				
